Assay results as given in patent US9873883B2, “Glyphosate resistant plants and associated methods” (Dow AgroSciences LLC, priority 2012, dated 2018).

Tests used:
[1] = tested on: T0 dgt-14 corn plants; assay: Postemergence herbicide tolerance in dgt-14 transformed T0 corn; type: in vivo, Zea mays; conditions: Durango DMA
Procedure: (§1) T0 events are allowed to acclimate in the greenhouse and are grown until two to four new, normal looking leaves emerge from the whorl (i.e., plants that transition from tissue culture to greenhouse growing conditions). Plants are grown at 27° C. under 16 hour light:8 hour dark conditions in the greenhouse. The plants are then treated with commercial formulations of Durango DMA™ (containing the herbicide glyphosate) with the addition of 2% w/v ammonium-sulfate. Herbicide applications are made with a track sprayer at a spray volume of 187 L/ha, 50-cm spray height. T0 plants are sprayed with a range of glyphosate from 280-4480 g ae/ha glyphosate, which is capable of significant injury to untransformed corn lines. A lethal dose is defined as the rate that causes >95% injury to the B104 inbred.

[2] = tested on: T0 corn; assay: as above; type: in vivo, Zea mays; conditions: example written in present tense
Procedure: as §1
Selected T0 plants are selfed or backcrossed for further characterization in the next generation. Additional experiments include a 100 plant progeny test which is conducted on chosen dgt-14 lines containing the T1 plants. All plants are sprayed with 140-1120 g ae/ha glufosinate or 105-1680 g ae/ha glyphosate as previously described. […] At fourteen DAT, resistant and sensitive plants are counted to determine the percentage of lines that segregated as a single locus, dominant Mendelian trait (3R:1S) as determined by Chi square analysis. […]

[3] = tested on: dgt-14 soybean plants; assay: Glyphosate tolerance of dgt-14 soybean; type: in vivo, Glycine max; conditions: sprayed
Procedure: Terminal leaflets of selected plantlets are treated topically (leaf paint technique) with a herbicide to screen for putative transformants. The screened plantlets are transferred to the greenhouse, allowed to acclimate and then leaf-painted with a herbicide to reconfirm tolerance. These putative transformed T0 plants are sampled and molecular analyses is used to confirm the presence of the selectable marker and the dgt-14 transgene. Several events are identified as containing the transgenes. These T0 plants are advanced for further analysis and allowed to self fertilize in the greenhouse to give rise to T1 seed. Soybean plants containing the dgt-14 transgene are obtained. The dgt-14 soybean plants are sprayed with varying concentrations of glyphosate and shown to provide tolerance to glyphosate at concentrations up to 3360 g ae/ha.

**Q.** What does the source list for `O=C(O)CNCP(=O)(O)O` [glyphosate, N-(phosphonomethyl)glycine]?
**A.** tolerance to glyphosate achieved at rates up to [1]: up to 4480 g ae/ha; glyphosate concentration controlling non-transformed plants [2]: ≥ 280 g ae/ha; tolerance to glyphosate at concentrations up to [3]: up to 3360 g ae/ha
